# Values of other authors, collected in US9353170B2, “Long-acting transient polymer conjugates of exendin” (SANOFI-AVENTIS DEUTSCHLAND GMBH, priority 2007, dated 2016).
# Where no end group is shown, it is not given here. PEG 2 kDa = polyethylene glycol, 2 kDa
# Key:
# normoglycaemic mice = details: subcutaneous injection
# [1] = incubation in a human plasma model
# db/db mice = details: 10 μg/mouse subcutaneously
substance,measurement,setting,value
"N-terminal PEGylation of GLP-1 with only PEG2kDa: GLP-1 N-terminally PEGylated with PEG2kDa (Lee et al. 2005) ({PEG 2 kDa}-HAEGTFTSDVSSYLEGQAAKEFIAWLVKGR; not fully specified (C-terminus); ends and bridges not checked; UniProt P01275 98-127, looked up)",activity on stimulating insulin release,rat pancreas islets,nearly completely abolished
PEG40 kDa-FMS-exendin-4: transiently PEGylated Exendin-4 based on a traceless FMS-linker (Shechter et al.),duration of maintained glucose lowering effect,normoglycaemic mice,24 h
same,glucose lowering effect,normoglycaemic mice,30%
[2-Sulfo-9-fluorenylmethoxycarbonyl]3-exendin-4 [FMS3-exendin-4],time at which cleavage is complete,[1],40 h
same,sustained reduction in blood glucose,db/db mice,50%
same,time of return of blood glucose to baseline value,db/db mice,45 h
